Experimental data published in US20070099941A1, “N-arylalkyl-thienopyrimidin-4-amines and analogs as activators of caspases and inducers of apoptosis and the use thereof” (Cytovia, Inc., priority 2005, published 2007).

Experiments:
Type in all cases: cell-based
[1] = system: human Burkitt's lymphoma cell line Namalwa; experiment: Caspase cascade activation assay in Namalwa cells; conditions: Burkitts lymphoma cell, 48 h assay, read-out: Caspase Activation Potency EC50 Namalwa
[2] = system: human lymphoma cell line Raji; experiment: Caspase cascade activation assay in Raji cells; conditions: 48 h assay, read-out: Caspase Activation Potency EC50 Raji
[3] = system: human breast cancer cell line T-47D; experiment: Inhibition of cell proliferation (GI50, CellTiter-Glo) in T-47D cells; conditions: T47D cells, 48 h, dose for 50% inhibition of cell proliferation
Method: (§1) Human breast cancer cell lines T-47D, MX-1 and MDAMB435, human colon cancer cell line HT29, and human lung cancer cell line H1299 were grown and harvested as in Example 26. An aliquot of […] of cells (4.4×10^4 cells/mL) was added to a well of a 96-well microtiter plate containing 5 μL of a 10% DMSO in RPMI-1640 media solution containing 10 nM to 100 μM of N-(3,4-methylenedioxybenzyl)-6-phenylthieno[3,2-d]pyrimidin-4-amine (1 nM to 10 μM final). An aliquot of 45 μL of cells was added to a well of a 96-well microtiter plate containing 5 μL of a 10% DMSO in RPMI-1640 media solution without compound as the control sample for maximal cell proliferation (LMax). The samples were mixed by agitation and then incubated at 37° C. for 48 h in a 5% CO2-95% humidity incubator. After incubation, the samples were removed from the incubator and 25 μL of CellTiter-Glo™ reagent (Promega) was added. The samples were mixed by agitation and incubated at room temperature for 10-15 min. Plates were then read using a luminescent plate reader (Model SPECTRAfluor Plus, Tecan) to give Ltest values.
(§2) Baseline for GI50 (dose for 50% inhibition of cell proliferation) of initial cell numbers was determined by adding an aliquot of 45 μL of cells or 45 μL of media, respectively, to wells of a 96-well microtiter plate containing 5 μL of a 10% DMSO in RPMI-1640 media solution. The samples were mixed by agitation and then incubated at 37° C. for 0.5 h in a 5% CO2-95% humidity incubator. After incubation, the samples were removed from the incubator and 25 μL of CellTiter-Glo™ reagent (Promega) was added. The samples were mixed by agitation and incubated at 37° C. for 10-15 min at room temperature in a 5% CO2-95% humidity incubator. Fluorescence was read as above, (Lstart) defining luminescence for initial cell number used as baseline in GI50 determinations.
(§3) GI50 (dose for 50% inhibition of cell proliferation) is the concentration where [(LTest−Lstart)/(LMax−Lstart)]=0.5.

[4] = system: human colon carcinoma cell line HCT116; experiment: Caspase cascade activation assay in HCT116 cells; conditions: HCT-116, 48 h assay, read-out: Caspase Activation Potency EC50 HCT116
[5] = system: human lung cancer cell line H1299; experiment: Inhibition of cell proliferation (GI50, CellTiter-Glo) in H1299 cells; conditions: NCI-H1299, 48 h, dose for 50% inhibition of cell proliferation
Method: as §1, §2, §3

[6] = system: human lung cancer cell line H1299; experiment: Caspase cascade activation assay in H1299 cells; conditions: NCI-H1299, 24 h or 48 h incubation, read-out: Caspase Activation Potency EC50 H1299
Method: (§4) Human breast cancer cell lines T-47D and human lung cancer cell line H1299 were grown according to media component mixtures designated by American Type Culture Collection+10% FCS (Invitrogen Corporation), in a 5% CO2-95% humidity incubator at 37° C. T-47D and H1299 cells were maintained at a cell density between 50 and 80% confluency at a cell density of 0.1 to 0.6×10^6 cells/mL. Cells were harvested at 600×g and resuspended at 0.65×10^6 cells/mL into appropriate media+10% FCS. An aliquot of 22.5 μL of cells was added to a well of a 384-well microtiter plate containing 2.5 μL of a 10% DMSO in RPMI-1640 media solution containing 0.16 to 100 μM of N-(3,4-methylenedioxybenzyl)-6-phenylthieno[3,2-d]pyrimidin-4-amine or other test compound (0.016 to 10 μM final). An aliquot of 22.5 μL of cells was added to a well of a 384-well microtiter plate containing 2.5 μL of a 10% DMSO in RPMI-1640 media solution without test compound as the control sample. The samples were mixed by agitation and then incubated at 37° C. for 24 h or 48 h in a 5% CO2-95% humidity incubator. After incubation, the samples were removed from the incubator and 25 μL of a solution containing 14 μM of N-(Ac-DEVD)-N′-ethoxycarbonyl-R110 (SEQ ID No.:1) fluorogenic substrate (Cytovia, Inc.; WO99/18856), 20% sucrose (Sigma), 20 mM DTT (Sigma), 200 mM NaCl (Sigma), 40 mM Na PIPES buffer pH 7.2 (Sigma), and 500 μg/mL lysolecithin (Calbiochem) was added. The samples were mixed by agitation and incubated at room temperature. Using a fluorescent plate reader (Model SPECTRAfluor Plus, Tecan), an initial reading (T=0) was made approximately 1-2 min after addition of the substrate solution, employing excitation at 485 nm and emission at 530 nm, to determine the background fluorescence of the control sample. After the 3 h incubation, the samples were read for fluorescence as above (T=3 h).
(§5) The Relative Florescence Unit values (RFU) were used to calculate the sample readings as follows: RFU(T=3h)−Control RFU(T=0)=Net RFU(T=3h)
(§6) The activity of caspase cascade activation was determined by the ratio of the net RFU value for N-(3,4-methylenedioxybenzyl)-6-phenylthieno[3,2-d]pyrimidin-4-amine (Example A) or other test compound to that of control samples. The EC50 (nM) was determined by a sigmoidal dose-response calculation (Prism 3.0, GraphPad Software Inc.).

[7] = system: human hepatocellular carcinoma cell line SNU398; experiment: Caspase cascade activation assay in SNU398 cells; conditions: SNU-398, 48 h assay, read-out: Caspase Activation Potency EC50 SNU398
[8] = system: human breast cancer cell line T-47D; experiment: Caspase cascade activation assay in T-47D cells; conditions: T47D, 24 h or 48 h incubation, read-out: Caspase Activation Potency EC50 T-47D
Method: as §4, §5, §6

[9] = system: human B cell lymphoblastoid cell line Ramos; experiment: Caspase cascade activation assay in Ramos cells; conditions: 48 h assay, read-out: Caspase Activation Potency EC50 Ramos
[10] = system: human colon cancer cell line HT29; experiment: Inhibition of cell proliferation (GI50, CellTiter-Glo) in HT29 cells; conditions: HT-29, 48 h, dose for 50% inhibition of cell proliferation
Method: as §1, §2, §3

[11] = system: human breast cancer cell line MDAMB435; experiment: Inhibition of cell proliferation (GI50, CellTiter-Glo) in MDAMB435 cells; conditions: MDA-MB-435, 48 h, dose for 50% inhibition of cell proliferation
Method: as §1, §2, §3

[12] = system: human breast cancer cell line MX-1; experiment: Inhibition of cell proliferation (GI50, CellTiter-Glo) in MX-1 cells; conditions: MX1 cells, 48 h, dose for 50% inhibition of cell proliferation
Method: as §1, §2, §3

SMILES	EC50 [1] [nM]	EC50 [2] [nM]	GI50 [3] [nM]	EC50 [4] [nM]	GI50 [5] [nM]	EC50 [6] [nM]	EC50 [7] [nM]	EC50 [8] [nM]	EC50 [9] [nM]	GI50 [10] [nM]	GI50 [11] [nM]	GI50 [12] [nM]
c1cncc(-c2cc3ncnc(NCc4ccc5c(c4)OCO5)c3s2)c1 [Example 5, N-(3,4-Methylenedioxybenzyl)-6-(pyridin-3-yl)thieno[3,2-d]pyrimidin-4-amine]	1350	2760	1290	2530	1810	1600	1450	563	1830	5240	155	173
Ic1cc2ncnc(NCc3ccc4c(c3)OCO4)c2s1 [Example 3, N-(3,4-Methylenedioxybenzyl)-6-iodo-thieno[3,2-d]pyrimidin-4-amine]	–	–	2070	–	1040	5090	–	1560	–	2500	997	2500
c1ccc(-c2cc3ncnc(NCc4ccc5c(c4)OCO5)c3s2)cc1 [Example A, N-(3,4-methylenedioxybenzyl)-6-phenylthieno[3,2-d]pyrimidin-4-amine]	633	1130	600	737	600	506	738	903	624	600	129	600
